Measurements taken from patent US20260218267A1, “METHODS AND COMPOSITIONS FOR PRODUCTION AND PURIFICATION OF PEPTIDES” (priority 2023, published 2026).

What was measured:
[1] = test system: grey mold (Botrytis cinerea); experiment: Disease control assay, tomato plants infected with grey mold; type: in vivo; details: peptide sprayed 24 h post infection at 0.1 g/l or 0.3 g/l, FIG. 17
Procedure: The peptides were sprayed 24 h post infection at concentration of 0.1 g/l or 0.3 g/l.
Peptide production was performed using the chaotropic agent-free protocol described in Example 8.
A synthetic peptide (MP18913), which mimics the concatemeric sequence with an N-terminus proline (P) and C-terminus aspartate (D), was chemically synthetized and used as a control treatment.
Peptide activity was assessed by a disease control assay using tomato plants infected with grey mold (Botrytis cinerea). Peptides were sprayed 24 h post infection at concentration of 0.1 g/l or 0.3 g/l. Disease control percentage was determined based on convex hull recovery, with a total of 7 plants examined (n=7) upon infection with Botrytis spores at 250 spores/ml.

[2] = general statement on onconase; cited from earlier work

MP18913 (PKKEEMSYMKRD)
Control of tomato grey mold infection, comparison in words [1]: as effective, or slightly more effective, than the chemically synthetized version

B1: Onconase: RNAse first identified in Rana pipiens, about 104 amino acids, used as insoluble carrier polypeptide (protein, UniProt P22069 1-104, looked up)
Protein P-30: QDWLTFQKKHITNTRDVDCDNIMSTNLFHCKDKNTFIYSRPEPVKAICKGIIASKNVLTTSEFYLSDCNVTSRPCKYKLKKSTNKFCVTCENQAPVHFVGVGSC
pI [2]: higher than 9.5
